pIC50: −log10 of the molar value. Activity calls are given as the source filed them. The calls are words filed in the database; no cut-off is given here.
Experiments:
[1] = molecular target: T1, Low molecular weight phosphotyrosine protein phosphatase (Homo sapiens, UniProt P24666); experiment: Inhibition of full length 6-His-N-terminal tagged human LMW-PTP expressed in Escherichia coli BL21 (DE3) cells assessed as pNP formation using pNPP as substrate incubated for 15 mins prior to substrate addition by plate reader analysis
T1 sequence (P24666 whole entry): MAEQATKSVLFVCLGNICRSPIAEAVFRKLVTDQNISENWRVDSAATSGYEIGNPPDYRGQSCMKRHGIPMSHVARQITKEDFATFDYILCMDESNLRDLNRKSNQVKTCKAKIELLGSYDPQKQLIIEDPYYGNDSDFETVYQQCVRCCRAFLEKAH

[2] = molecular target: T2, M-phase inducer phosphatase 2 (Homo sapiens, UniProt P30305); experiment: Inhibition of 6-His-N-terminal tagged human CDC-25B isoform 3 catalytic domain expressed in Escherichia coli BL21 (DE3) cells assessed as pNP formation using pNPP as substrate incubated for 15 mins prior to substrate addition by plate reader analysis
T2 sequence (P30305 whole entry): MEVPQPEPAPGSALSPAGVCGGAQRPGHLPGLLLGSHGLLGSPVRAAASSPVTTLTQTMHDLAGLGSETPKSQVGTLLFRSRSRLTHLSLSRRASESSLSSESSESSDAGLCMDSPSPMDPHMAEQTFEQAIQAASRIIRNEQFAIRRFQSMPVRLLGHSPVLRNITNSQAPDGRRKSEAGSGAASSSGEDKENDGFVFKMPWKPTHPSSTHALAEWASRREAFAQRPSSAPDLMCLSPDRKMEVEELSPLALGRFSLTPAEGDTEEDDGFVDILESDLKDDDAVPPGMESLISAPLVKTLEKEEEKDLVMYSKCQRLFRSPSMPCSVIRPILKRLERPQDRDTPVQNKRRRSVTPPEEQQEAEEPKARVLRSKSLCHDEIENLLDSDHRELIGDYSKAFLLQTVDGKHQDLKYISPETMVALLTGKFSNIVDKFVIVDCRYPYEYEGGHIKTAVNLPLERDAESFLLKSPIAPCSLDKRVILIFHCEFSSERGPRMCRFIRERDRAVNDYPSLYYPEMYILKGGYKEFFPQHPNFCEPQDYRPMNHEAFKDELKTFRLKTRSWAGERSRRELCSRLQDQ

[3] = molecular target: T3, Tyrosine-protein phosphatase non-receptor type 1 (Homo sapiens, UniProt P18031); experiment: Inhibition of 6-His-N-terminal tagged human PTP1B expressed in Escherichia coli BL21 (DE3) cells assessed as pNP formation using pNPP as substrate incubated for 15 mins prior to substrate addition by plate reader analysis
T3 sequence (P18031 whole entry): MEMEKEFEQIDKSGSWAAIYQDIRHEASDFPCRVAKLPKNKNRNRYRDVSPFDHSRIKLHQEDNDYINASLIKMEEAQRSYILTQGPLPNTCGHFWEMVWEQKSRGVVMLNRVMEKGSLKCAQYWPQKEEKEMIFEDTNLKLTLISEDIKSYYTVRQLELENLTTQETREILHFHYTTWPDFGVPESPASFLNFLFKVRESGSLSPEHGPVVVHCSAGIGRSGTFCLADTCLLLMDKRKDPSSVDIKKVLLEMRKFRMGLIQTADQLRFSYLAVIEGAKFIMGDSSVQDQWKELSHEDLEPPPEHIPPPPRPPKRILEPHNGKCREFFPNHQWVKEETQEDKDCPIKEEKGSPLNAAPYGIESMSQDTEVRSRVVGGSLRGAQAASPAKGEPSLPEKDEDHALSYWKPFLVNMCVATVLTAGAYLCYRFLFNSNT

[4] = Retardation factor of the compound using Hexanes:AcOEt (1:1) as solvent system by column chromatography; format: physicochemical
[5] = molecular target: T4, Low molecular weight phosphotyrosine protein phosphatase (Homo sapiens) (UniProt P24666); experiment: Inhibition of full length 6-His-N-terminal tagged human LMW-PTP expressed in Escherichia coli BL21 (DE3) cells assessed as pNP formation using pNPP as substrate at 100 uM incubated for 15 mins prior to substrate addition by plate reader analysis
T4 sequence (whole entry): T1 sequence (P24666 whole entry)

[6] = Retardation factor of the compound using Hexanes:AcOEt (1:2) as solvent system by column chromatography; format: physicochemical
[7] = Retardation factor of the compound using Hexanes:AcOEt (7:3) as solvent system by column chromatography; format: physicochemical
[8] = Retardation factor of the compound using Hexanes:AcOEt (2:1) as solvent system by column chromatography; format: physicochemical
[9] = molecular target: T5, M-phase inducer phosphatase 2 (Homo sapiens) (UniProt P30305); experiment: Inhibition of 6-His-N-terminal tagged human CDC-25B isoform 3 catalytic domain expressed in Escherichia coli BL21 (DE3) cells assessed as pNP formation using pNPP as substrate at 100 uM incubated for 15 mins prior to substrate addition by plate reader analysis
T5 sequence (whole entry): T2 sequence (P30305 whole entry)

[10] = molecular target: T4, Low molecular weight phosphotyrosine protein phosphatase (Homo sapiens); experiment: Mixed type of inhibition of full length 6-His-N-terminal tagged human LMW-PTP expressed in Escherichia coli BL21 (DE3) cells using pNPP as substrate by Lineweaver-Burk plot analysis
[11] = molecular target: T6, Tyrosine-protein phosphatase non-receptor type 1 (Homo sapiens) (UniProt P18031); experiment: Mixed type of inhibition of 6-His-N-terminal tagged human PTP1B expressed in Escherichia coli BL21 (DE3) cells using pNPP as substrate by Lineweaver-Burk plot analysis
T6 sequence (whole entry): T3 sequence (P18031 whole entry)

[12] = molecular target: T6, Tyrosine-protein phosphatase non-receptor type 1 (Homo sapiens); experiment: Time-dependent inhibition of 6-His-N-terminal tagged human PTP1B expressed in Escherichia coli BL21 (DE3) cells using pNPP as substrate treated with compound prior to substrate addition by plate reader analysis; conditions: TDE = time-dependent effect
[13] = molecular target: T6, Tyrosine-protein phosphatase non-receptor type 1 (Homo sapiens); experiment: Inhibition of 6-His-N-terminal tagged human PTP1B expressed in Escherichia coli BL21 (DE3) cells assessed as pNP formation using pNPP as substrate incubated for 15 mins prior to substrate addition by plate reader analysis in presence of 25 mM ammonium sulfate
[14] = Retardation factor of the compound using CHCl3:MeOH (9:1) as solvent system by column chromatography; format: physicochemical
[15] = molecular target: T6, Tyrosine-protein phosphatase non-receptor type 1 (Homo sapiens); experiment: Binding affinity to 6-His-N-terminal tagged human PTP1B expressed in Escherichia coli BL21 (DE3) cells after 3 hrs by tryptophan emission monitoring analysis
[16] = molecular target: T4, Low molecular weight phosphotyrosine protein phosphatase (Homo sapiens); experiment: Binding affinity to full length 6-His-N-terminal tagged human LMW-PTP expressed in Escherichia coli BL21 (DE3) cells after 3 hrs by tryptophan emission monitoring analysis
[17] = molecular target: Albumin (Bos taurus, UniProt P02769); experiment: Binding affinity to bovine serum albumin after 3 hrs by tryptophan emission monitoring analysis; conditions: cattle
[18] = molecular target: Lysozyme C (Gallus gallus) (UniProt P00698); experiment: Binding affinity to hen egg lysozyme after 3 hrs by tryptophan emission monitoring analysis
[19] = molecular target: T6, Tyrosine-protein phosphatase non-receptor type 1 (Homo sapiens); experiment: Binding affinity to 6-His-N-terminal tagged human PTP1B expressed in Escherichia coli BL21 (DE3) cells assessed as protein aggregate formation up to 100 uM after 1 hr by native PAGE analysis
[20] = molecular target: T4, Low molecular weight phosphotyrosine protein phosphatase (Homo sapiens); experiment: Binding affinity to full length 6-His-N-terminal tagged human LMW-PTP expressed in Escherichia coli BL21 (DE3) cells assessed as protein aggregate formation up to 100 uM after 1 hr by native PAGE analysis
[21] = molecular target: T4, Low molecular weight phosphotyrosine protein phosphatase (Homo sapiens); experiment: Inhibition of full length 6-His-N-terminal tagged human LMW-PTP expressed in Escherichia coli BL21 (DE3) cells assessed as pNP formation using pNPP as substrate at 100 uM by plate reader analysis in presence of 50 mM MgCl2
[22] = molecular target: T5, M-phase inducer phosphatase 2 (Homo sapiens); experiment: Inhibition of 6-His-N-terminal tagged human CDC-25B isoform 3 catalytic domain expressed in Escherichia coli BL21 (DE3) cells assessed as pNP formation using pNPP as substrate at 100 uM by plate reader analysis in presence of 50 mM MgCl2
[23] = molecular target: T6, Tyrosine-protein phosphatase non-receptor type 1 (Homo sapiens); conditions: BL21-DE3, 5 uM
Description: Reversible inhibition of 6-His-N-terminal tagged human PTP1B expressed in Escherichia coli BL21 (DE3) cells using pNPP as substrate at 5 uM incubated for 15 mins prior to substrate addition measured after drug wash out by plate reader analysis

Chain of Albumin (P02769 whole entry): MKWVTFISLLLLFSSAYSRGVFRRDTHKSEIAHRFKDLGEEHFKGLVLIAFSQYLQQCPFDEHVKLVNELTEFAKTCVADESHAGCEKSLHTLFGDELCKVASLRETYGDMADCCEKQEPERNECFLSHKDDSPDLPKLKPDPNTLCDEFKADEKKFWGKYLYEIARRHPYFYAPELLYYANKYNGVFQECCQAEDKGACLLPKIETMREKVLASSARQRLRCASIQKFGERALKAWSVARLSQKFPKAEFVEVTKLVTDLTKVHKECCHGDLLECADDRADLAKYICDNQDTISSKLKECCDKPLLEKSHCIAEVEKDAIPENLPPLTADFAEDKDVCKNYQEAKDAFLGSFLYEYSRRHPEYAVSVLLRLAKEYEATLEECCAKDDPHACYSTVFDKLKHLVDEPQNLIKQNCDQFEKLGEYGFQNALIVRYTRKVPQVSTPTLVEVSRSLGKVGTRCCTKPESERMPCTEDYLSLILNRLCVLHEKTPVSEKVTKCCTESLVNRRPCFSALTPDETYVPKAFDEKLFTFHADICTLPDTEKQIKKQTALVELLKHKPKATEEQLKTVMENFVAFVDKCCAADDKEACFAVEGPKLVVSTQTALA
Chain of Lysozyme C (Gallus gallus) (P00698 whole entry): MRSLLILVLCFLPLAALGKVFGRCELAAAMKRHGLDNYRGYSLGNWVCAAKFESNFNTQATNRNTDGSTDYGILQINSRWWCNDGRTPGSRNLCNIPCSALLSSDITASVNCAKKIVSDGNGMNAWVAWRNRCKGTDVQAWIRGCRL

CCCCCCCCCCCCCCCC(=O)C1=C(O)C(COC(=O)c2ccc(C(=O)c3ccccc3)cc2)OC1=O (stereo unspecified)
pIC50 [1]: 5.42
pIC50 [2]: 5.23
pIC50 [3]: 6.52

CCCCCCCCCCCCCCCCCC(=O)C1=C(O)OC(C)(C)OC1=O
pIC50 [1]: 5.28
pIC50 [2]: 5.19
pIC50 [3]: 6.22
Rf [4]: 0.51

CCCCCCCCCCCCCCCC(=O)C1=C(O)C(COS(C)(=O)=O)OC1=O (stereo unspecified)
pIC50 [1]: 5.48
pIC50 [2]: 5.10
pIC50 [3]: 6.40

CC(C)C(=O)C1=C(O)OC(C)(C)OC1=O
pIC50 [2]: < 4.00
pIC50 [3]: 4.14
inhibition [5]: inactive
Rf [6]: 0.5

CCCCCCCCCCCCCCCC(=O)C1=C(O)C(COC(C)=O)OC1=O (stereo unspecified)
pIC50 [1]: 5.00
pIC50 [2]: 4.97
pIC50 [3]: 6.40

CCCCCCCCCCCCCCCC(=O)C1=C(O)CC(COCc2ccccc2)OC1=O (stereo unspecified)
pIC50 [1]: < 4.00
pIC50 [2]: 5.14
pIC50 [3]: 5.25
Rf [7]: 0.71

CCCCCCCCCCCCCCCC(=O)C1=C(O)C(COC(=O)c2ccccc2C(=O)c2ccccc2)OC1=O (stereo unspecified)
pIC50 [1]: 5.00
pIC50 [2]: 5.20
pIC50 [3]: 6.30

CCCCCCCCCC(=O)C1=C(O)OC(C)(C)OC1=O
pIC50 [1]: < 4.00
pIC50 [2]: < 4.00
pIC50 [3]: 4.54
Rf [8]: 0.49

CCCC(=O)C1=C(O)OC(C)(C)OC1=O
pIC50 [3]: < 4.00
inhibition [5]: inactive
inhibition [9]: inactive
Rf [6]: 0.47

CCCCCCCCCCCCCCCC(=O)C1=C(O)OC2(CCCC2)OC1=O
pIC50 [1]: 5.02
pIC50 [2]: 5.15
pIC50 [3]: 6.10
Rf [8]: 0.59

CCCCCCCCCCCCCCCC(=O)C1=C(O)OC(C)(C)OC1=O
pIC50 [1]: 4.66
pIC50 [2]: 4.86
pIC50 [3]: 6.00
inhibition [10]: Active
inhibition [11]: Active
inhibition [12]: tde
inhibition [13]: inactive
Rf [4]: 0.5

CCCCCCCCCCCCCCCC(=O)C1=C(O)OC(C)(CC)OC1=O (stereo unspecified)
pIC50 [1]: 4.53
pIC50 [2]: 5.26
pIC50 [3]: 6.10
Rf [8]: 0.42

CCCCCCCCCCCCCCCC(=O)C1=C(O)CC(CO)OC1=O (stereo unspecified)
pIC50 [1]: < 4.00
pIC50 [2]: 4.87
pIC50 [3]: 4.81
inhibition [10]: Active
inhibition [11]: Active
inhibition [12]: tde
Rf [14]: 0.5

C=C1OC(=O)C(C(=O)CCCCCCCCCCCCCCC)=C1O
pIC50 [1]: 5.60
pIC50 [2]: 5.13
pIC50 [3]: 6.40

CC(=O)C1=C(O)OC(C)(C)OC1=O
pIC50 [3]: < 4.00
inhibition [5]: inactive
inhibition [9]: inactive

CCCCCCCCCCCCCCCC(=O)C1=C(O)OC(CC)(CC)OC1=O
pIC50 [1]: < 4.00
pIC50 [2]: 5.34
pIC50 [3]: 5.96
Rf [8]: 0.59

CCCCCCCCCCCCCCCC(=O)OC1=CC(=O)OC(COCc2ccccc2)C1 (stereo unspecified)
pIC50 [1]: < 4.00
pIC50 [2]: < 4.00
pIC50 [3]: 5.09
Activity [15]: Active
Activity [16]: Active
Activity [17]: Active
Activity [18]: Active
Activity [19]: inactive
Activity [20]: inactive
Rf [7]: 0.72

CCCCCCCCCCCCCCCC(=O)C1=C(O)C(CO)OC1=O (racemic)
inhibition [21]: inactive
inhibition [22]: inactive
pIC50 [1]: 5.07
pIC50 [2]: 4.91
pIC50 [3]: 6.15
inhibition [10]: Active
inhibition [11]: Active
inhibition [12]: tde
inhibition [13]: inactive
Activity [15]: Active
Activity [16]: Active
Activity [17]: Active
Activity [18]: Active
Activity [19]: Active
Activity [20]: Active
inhibition [23]: Active

Reference: ChEMBL document CHEMBL3425400, “Is RK-682 a promiscuous enzyme inhibitor? Synthesis and in vitro evaluation of protein tyrosine phosphatase inhibition of racemic RK-682 and analogues” (Eur J Med Chem, 2015)
